Reference: US10300048B2, “Thiazolidinones as cellular anandamide uptake inhibitors and their use in the treatment of psychiatric or neurological disorders and inflammation, in particular neuroinflammation” (UNIVERSITAT BERN, priority 2014, dated 2019)
Like-named read-outs stand apart in the source and are kept apart here.

Tests used:
[1] = tested on: AEA cellular uptake, U937 cells; assay: [3H]-AEA cellular uptake inhibition in U937 cells; type: cell-based; conditions: Homo sapiens, U-937, U937 cells
Description: [^3H]-AEA Cellular Uptake
Screening for AEA cellular uptake inhibition was performed in a semi-automated procedure: Pipetting and washing steps were performed by a Biomek3000 laboratory workstation. First, required amounts of U937 cells were centrifuged at 100×g for 5 min and resuspended in RPMI (37° C.) to a final concentration of 2×10^6 cells/mL. Then, 250 μL of cell suspension (0.5×10^6 cells per sample) were transferred into AquaSil™ silanized glass vials (Chromacol 1.1-MTV) in 96-well format. After addition of 5 μL vehicle (DMSO) or compounds the cells were incubated at 37° C. for 15 min. As positive controls OMDM-2 and UCM707 were used at 10 μM in each run. The ETI-T compounds were measured at up to 7 concentrations in triplicates from 100 pM-100 μM. After pre-incubation, a mixture of 0.5 nM[ethanolamine-1-^3H]-AEA, (60 Ci/mmol) and 99.5 nM of cold AEA (final 100 nM) was added and samples were incubated at 37° C. for another 15 min. The reaction was stopped by rapid filtration over UniFilter-96 GF/C filters (PerkinElmer) pre-soaked with PBS 0.25% BSA. Cells were washed three times with 100 μL ice-cold PBS buffer containing 1% fatty acid free BSA. After drying, 45 μL MicroScint 20 scintillation cocktail (PerkinElmer, Waltham, Mass., US) was added to the wells and the plate was sealed. Radioactivity was measured by liquid scintillation counting on a PerkinElmer Wallac Trilux MicroBeta 1450 during 2 min. Non-specific binding of [^3H]AEA (100 nM) to the glass vials was never higher than 10%. IC50 values were calculated by GraphPad® by non-linear regression using the built-in log(inhibitor) vs. response-variable slope (four parameters) function.
(§1) Statistical analysis and IC50 values were determined using GraphPad® Prism 5.0 (GraphPad® Software, San Diego, Calif., US). Inhibition curves were obtained by non-linear regression using the built-in log(inhibitor) vs. response-variable slope (four parameters) function. Results were calculated as % of vehicle control of the corresponding fraction (cells, aqueous phase) if not mentioned else. In vivo results are shown in absolute values and were analyzed by a one-way ANOVA following a Tukey's multiple comparison test or student's t-test. If not indicated else the results were compared vs. vehicle (CTRL). *** P<0.001, ** P<0.01, * P<0.05, ns=not significant P>0.05.

FAAH = FAAH (Homo sapiens (Human), UniProt O00519); assay: FAAH activity: hydrolysis of [3H]-AEA in U937 cell homogenates; type: biochemical; conditions: U937 cell homogenate, read-out: FAAH inhibition IC50
Sequence of FAAH (O00519 whole entry): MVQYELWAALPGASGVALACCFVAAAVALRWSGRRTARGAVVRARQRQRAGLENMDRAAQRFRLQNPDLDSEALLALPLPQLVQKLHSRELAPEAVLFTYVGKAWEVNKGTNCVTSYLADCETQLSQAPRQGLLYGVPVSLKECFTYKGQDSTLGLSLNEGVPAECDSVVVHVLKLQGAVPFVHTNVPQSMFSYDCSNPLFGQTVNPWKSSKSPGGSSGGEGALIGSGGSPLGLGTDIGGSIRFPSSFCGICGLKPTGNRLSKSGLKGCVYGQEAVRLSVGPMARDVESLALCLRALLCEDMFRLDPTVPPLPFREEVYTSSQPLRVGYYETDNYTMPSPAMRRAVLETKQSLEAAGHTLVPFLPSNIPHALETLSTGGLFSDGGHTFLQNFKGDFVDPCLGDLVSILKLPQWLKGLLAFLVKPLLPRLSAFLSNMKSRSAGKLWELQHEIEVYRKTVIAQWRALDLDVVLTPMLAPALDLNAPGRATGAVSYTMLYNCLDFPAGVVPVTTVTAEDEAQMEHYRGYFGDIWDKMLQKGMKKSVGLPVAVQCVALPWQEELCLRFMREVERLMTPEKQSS
Description: Hydrolysis of [^3H]-AEA by FAAH was determined as previously described in cell homogenates of U937 cells (0.18 mg protein) (Omeir et al., 1999, Biochem Biophys Res Commun, 264, 316-20; Mor et al., 2004, J Med Chem, 47, 4998-5008). Protein amounts of cell homogenates corresponded to 0.5×10^6 cells (U937), to assure best possible comparability of IC50 values as used for the AEA cellular uptake assays. URB597 was used as positive control. Protein quantification was performed using a BCA assay (Thermo Scientific). Enzyme activity was assessed by addition of vehicle or compounds in 10 μL DMSO to 490 μL homogenate in 10 mM Tris HCl, 1 mM EDTA, 0.1% (w/v) BSA fatty acid free, pH=8 and incubation for 15 min at 37° C. After, a mixture of AEA plus [ethanolamine-1-^3H]-AEA (0.5 nM) at final 100 nM was added to the homogenates and incubated for 15 min at 37° C. The reaction was stopped by addition of 1 mL ice-cold CHCl3:MeOH (1:1) followed by vigorous vortexing. Phase separation was achieved by centrifugation at 10′000×g at 4° C. for 10 min. Radioactivity of the separated aqueous phase (upper phase) containing [^3H-ethanolamine] or [^3H-glycerol] was measured by liquid scintillation counting on a Tri-Carb 2100 TR liquid scintillation analyzer after addition of 3.5 mL Ultima Gold scintillation cocktail (PerkinElmer Life Sciences). Results are expressed as hydrolysis of tritium substrate in percent of vehicle treated control. IC50 values were calculated by GraphPad®. Data are reported as means of n=3 independent experiments performed in triplicates.
as §1

hCB1 receptor = hCB1 receptor (Homo sapiens (Human), UniProt P21554); assay: Radioligand CB receptor binding, [3H]-CP55,940 displacement on CHO-K1 hCB1 membranes; conditions: for CB1 receptor binding (%) at 10 µM: Table 4
Sequence of hCB1 receptor (P21554 whole entry): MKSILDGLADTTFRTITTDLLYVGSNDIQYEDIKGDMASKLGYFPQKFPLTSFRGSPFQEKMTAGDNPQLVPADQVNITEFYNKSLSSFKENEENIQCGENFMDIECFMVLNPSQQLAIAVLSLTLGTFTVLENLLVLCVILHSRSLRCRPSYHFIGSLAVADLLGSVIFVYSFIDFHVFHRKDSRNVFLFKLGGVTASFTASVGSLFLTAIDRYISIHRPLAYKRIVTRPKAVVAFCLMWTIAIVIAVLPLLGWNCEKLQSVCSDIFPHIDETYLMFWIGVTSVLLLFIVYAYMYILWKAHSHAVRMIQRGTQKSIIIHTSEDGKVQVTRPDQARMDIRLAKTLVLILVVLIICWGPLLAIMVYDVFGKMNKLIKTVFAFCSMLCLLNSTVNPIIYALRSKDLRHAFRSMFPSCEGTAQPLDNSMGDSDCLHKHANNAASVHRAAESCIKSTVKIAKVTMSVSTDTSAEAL
Description: Stably transfected CHO-K1 cells expressing hCB1 or hCB2 receptors (Gertsch et al., 2008, Proc Natl Acad Sci 105, 9099-104) were cultured in T150 cm^2 flasks up to 90% confluence. The medium was removed and cells were washed twice with PBS, 37° C. 10 mL of PBS was added and the cells were scraped and transferred into a falcon tube following homogenization by a Polytron PT1300D for 5 min at 30 krpm. Then, the homogenate was centrifuged (1400×g, 5 min) to remove debris. The supernatant was subjected to ultracentrifugation (64000×g, 45 min, 4° C.) to separate cytosolic from the membrane fraction. The supernatant was discharged and the pellet resuspended in PBS by sonication. Protein quantity was determined by BCA assay (Thermo Scientific) and aliquots of 500 μL were stored at −80° C. until use.
Radioligand CB Receptor Binding
Binding properties of ETI-T compounds to hCB1 or hCB2 receptors were performed as previously reported in a [^3H]-CP55,940 displacement assay (Gertsch et al., 2008, Proc Natl Acad Sci 105, 9099-104). WIN 55,212-2 was used as positive control. In brief, 20 μg protein of CHO-K1 hCB1 or hCB2 membrane preparations were thawed on ice and resuspended in a final volume of 500 μL binding buffer (50 mM Tris-HCl, 2.5 mM EDTA, 5 mM MgCl2, 0.5% fatty acid free BSA, pH 7.4) in silanized glass vials. [^3H]-CP55,940 (168 Ci/mmol) (PerkinElmer, Waltham, Mass., US) was added to a final concentration of 0.5 nM followed by the addition of competitors or vehicle in 5 μL DMSO. Membrane binding was equilibrated for 2 h at room temperature (25° C.). Samples were filter through a 0.1% polyethylenimine pre-soaked UniFilter®-96 GF/B plate (PerkinElmer) and washed twelve times with 167 μL ice-cold assay-buffer. The plate was dried, bottom sealed and 45 μL MicroScint 20 scintillation cocktail (PerkinElmer) were added before measured on a PerkinElmer 1450 Microbeta TRILUX liquid scintillation counter. Unspecific binding was determined by WIN 55,212-2, 10 μM and subtracted from all values. […].

[2] = Table 1, 100 nM AEA, read-out: AEA uptake inhibition IC50
[3] = Table 4, read-out: AEA uptake IC50

Row | IC50 [1, 2] | IC50 [1, 3] | IC50 (FAAH; Table 4) | CB1 receptor binding (%) at 10 µM (hCB1 receptor) | IC50 (FAAH; Table 2) | CB1 receptor binding % binding at 10 μM (hCB1 receptor; Table 3) | SMILES
1 | 0.225 µM | 0.225 µM | 26.9 µM | 64% | – | – | COc1cc(/C=C2\S/C(=N\c3ccccc3)N(c3ccccc3)C2=O)ccc1O [Compound 6]
2 | 0.148 µM | 0.148 µM | 20.4 µM | 37% | – | – | COc1ccc(/C=C2\S/C(=N\c3ccc(OC)cc3)N(c3ccc(OC)cc3)C2=O)cc1 [Compound 5]
3 | 0.99 µM | 0.99 µM | 60.3 µM | 24% | 60.3 µM | 24% | O=C1/C(=C/c2cc(Cl)c(O)c(Cl)c2)S/C(=N\c2ccccc2)N1Cc1ccco1 [Compound 23]
